Source: the supplement of paper PMC4862054

Tests used:
Conditions in all cases: incubation time: 72 h
[1] = test system: HDQ-P1; assay: drug sensitivity score (DSS), CellTox Green (DSS (AUC-based score)); higher = stronger drug effect (viability inhibition or cytotoxicity); extreme values may be limits of the assay
How it was run: (§1)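 After 72 h of incubation in 384-well plates with compound at 5 concentrations (10-fold steps, 10,000-fold range set per compound), breast cancer cell lines seeded in 20 µl suspension were read first for CellTox Green fluorescence at 485/520 nm. CellTiter-Glo luminescence was measured next, after 10 min at room temperature. Normalisation on each plate used 0.1 % DMSO and a positive kill control, and the drug sensitivity score was computed from the area under the fitted dose-response curve.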

[2] = test system: MDA-MB-468; assay: as above
How it was run: as §1

[3] = test system: HCC1143; assay: as above
How it was run: as §1

[4] = test system: MCF-10A; assay: as above
How it was run: as §1

[5] = test system: MDA-MB-436; assay: as above
How it was run: as §1

[6] = test system: Hs578T; assay: as above
How it was run: as §1

[7] = test system: DU-4475; assay: as above
How it was run: as §1

[8] = test system: HCC1937; assay: as above
How it was run: as §1

[9] = test system: BT-549; assay: as above
How it was run: as §1

[10] = test system: HCC1599; assay: as above
How it was run: as §1

[11] = test system: MDA-MB-453; assay: as above
How it was run: as §1

[12] = test system: MDA-MB-231; assay: as above
How it was run: as §1

[13] = test system: CAL-85-1; assay: as above
How it was run: as §1

[14] = test system: CAL-120; assay: as above
How it was run: as §1

[15] = test system: CAL-51; assay: as above
How it was run: as §1

[16] = test system: BT-474; assay: as above
How it was run: as §1

[17] = test system: HDQ-P1; assay: normalised viability (% of control), CellTiter-Blue; higher = more viable cells (about 100 = DMSO control)
How it was run: (§2)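 Vehicle (100) and a positive kill control (0) anchored the normalisation of each plate, and Z'-factor was used for quality control. Breast cancer cell lines in 20 µl suspension were incubated 72 h over compound in 5 µl medium in 384-well plates, followed by CellTiter-Blue at 560/590 nm. The value is normalised viability at a single listed concentration of the series.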

[18] = test system: MDA-MB-468; assay: as above
How it was run: as §2

[19] = test system: HCC1143; assay: as above
How it was run: as §2

[20] = test system: DU-4475; assay: as above
How it was run: as §2

[21] = test system: HCC1937; assay: as above
How it was run: as §2

[22] = test system: HCC1599; assay: as above
How it was run: as §2

[23] = test system: MDA-MB-231; assay: as above
How it was run: as §2

[24] = test system: CAL-51; assay: as above
How it was run: as §2

[25] = test system: BT-474; assay: as above
How it was run: as §2

CO[C@@]12[C@H](COC(N)=O)C3=C(C(=O)C(C)=C(N)C3=O)N1C[C@@H]1N[C@@H]12 [Mitomycin C]
drug sensitivity score [1]: 0.392
drug sensitivity score [2]: 27.4
drug sensitivity score [3]: 1.5
drug sensitivity score [4]: 0
drug sensitivity score [5]: 0
drug sensitivity score [6]: 0.971
drug sensitivity score [7]: 0
drug sensitivity score [8]: 0
drug sensitivity score [9]: 0
drug sensitivity score [10]: 0
drug sensitivity score [11]: 0
drug sensitivity score [12]: 0
drug sensitivity score [13]: 0
drug sensitivity score [14]: 0
drug sensitivity score [15]: 17.2
drug sensitivity score [16]: 0
normalised viability ([17]; 3 nM): 105%
normalised viability ([17]; 30 nM): 96.3%
normalised viability ([17]; 100 nM): 104%
normalised viability ([18]; 10 nM): 95.3%
normalised viability ([18]; 1000 nM): 78.5%
normalised viability ([18]; 10000 nM): 8.5%
normalised viability ([19]; 10 nM): 78.3%
normalised viability ([19]; 1000 nM): 72.4%
normalised viability ([19]; 10000 nM): 20.4%
normalised viability ([20]; 3 nM): 105%
normalised viability ([20]; 30 nM): 83.6%
normalised viability ([20]; 100 nM): 91%
normalised viability ([21]; 10 nM): 88.4%
normalised viability ([21]; 1000 nM): 45.4%
normalised viability ([21]; 10000 nM): 21.6%
normalised viability ([22]; 10 nM): 110%
normalised viability ([22]; 1000 nM): 73.2%
normalised viability ([22]; 10000 nM): 14.6%
normalised viability ([23]; 10 nM): 108%
normalised viability ([23]; 1000 nM): 76.1%
normalised viability ([23]; 10000 nM): 47.3%
normalised viability ([24]; 3 nM): 119%
normalised viability ([24]; 30 nM): 118%
normalised viability ([24]; 100 nM): 107%
normalised viability ([25]; 10 nM): 112%
normalised viability ([25]; 1000 nM): 95.5%
normalised viability ([25]; 10000 nM): 53.7%

CCNC(=O)c1noc(-c2cc(C(C)C)c(O)cc2O)c1-c1ccc(CN2CCOCC2)cc1 [NVP-AUY922]
drug sensitivity score [1]: 6
drug sensitivity score [2]: 0
drug sensitivity score [3]: 0
drug sensitivity score [4]: 13.6
drug sensitivity score [5]: 0
drug sensitivity score [6]: 6.88
drug sensitivity score [7]: 5.69
drug sensitivity score [8]: 0.92
drug sensitivity score [9]: 0
drug sensitivity score [10]: 0
drug sensitivity score [11]: 0.086
drug sensitivity score [12]: 12.6
drug sensitivity score [13]: 9.49
drug sensitivity score [14]: 0.256
drug sensitivity score [15]: 6.99
drug sensitivity score [16]: 3.93
normalised viability ([17]; 0.3 nM): 94%
normalised viability ([17]; 3 nM): 97.8%
normalised viability ([17]; 10 nM): 64.9%
normalised viability ([18]; 1 nM): 106%
normalised viability ([18]; 100 nM): 27.3%
normalised viability ([18]; 1000 nM): 23.3%
normalised viability ([19]; 1 nM): 119%
normalised viability ([19]; 100 nM): 45%
normalised viability ([19]; 1000 nM): 47.7%
normalised viability ([20]; 0.3 nM): 114%
normalised viability ([20]; 3 nM): 109%
normalised viability ([20]; 10 nM): 87.6%
normalised viability ([21]; 1 nM): 58.5%
normalised viability ([21]; 100 nM): 24.7%
normalised viability ([21]; 1000 nM): 30.7%
normalised viability ([22]; 1 nM): 101%
normalised viability ([22]; 100 nM): 43.4%
normalised viability ([22]; 1000 nM): 41.2%
normalised viability ([23]; 1 nM): 140%
normalised viability ([23]; 100 nM): 39.1%
normalised viability ([23]; 1000 nM): 31%
normalised viability ([24]; 0.3 nM): 107%
normalised viability ([24]; 3 nM): 106%
normalised viability ([24]; 10 nM): 104%
normalised viability ([25]; 1 nM): 102%
normalised viability ([25]; 100 nM): 27.7%
normalised viability ([25]; 1000 nM): 22.3%
